Results: patent publication US11535630B2, “Apelin receptor (APJ) agonists and uses thereof” (Research Triangle Institute, priority 2015, dated 2022)

Biological target: T1, apelin receptor (APJ) (Homo sapiens, UniProt P35414)
T1 sequence (P35414 1-380): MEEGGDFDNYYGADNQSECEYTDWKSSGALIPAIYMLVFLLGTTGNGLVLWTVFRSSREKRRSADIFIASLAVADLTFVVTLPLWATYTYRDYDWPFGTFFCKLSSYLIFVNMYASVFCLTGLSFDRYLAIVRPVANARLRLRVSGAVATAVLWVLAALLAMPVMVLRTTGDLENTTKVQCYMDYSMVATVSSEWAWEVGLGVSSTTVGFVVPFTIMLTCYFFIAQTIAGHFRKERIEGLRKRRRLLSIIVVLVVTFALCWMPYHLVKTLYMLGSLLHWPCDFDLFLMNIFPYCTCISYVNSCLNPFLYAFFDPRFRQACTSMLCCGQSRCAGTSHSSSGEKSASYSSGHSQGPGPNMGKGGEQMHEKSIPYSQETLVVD
Experiment: In vitro apelin agonist activity (methods of Giddings et al., Apelin-13 as positive control)
Type: cell-based
Settings: EC50 (nM) Ave, in vitro apelin agonist activity, methods of Giddings et al., Apelin-13 as positive control
From the text: Characterization of the Apelin Agonist Activity of the Compounds
1:39-47, the contents of which are hereby incorporated by reference in its entirety. Using the methods described in Giddings et al. and Apelin-13 as a positive control.

`COc1cccc(OC)c1-c1cc(C(=O)N[C@@H](CCc2ccccc2)C(=O)O)nn1CC(C)C` [compound 311, (2S)-2-{[5-(2,6-dimethoxyphenyl)-1-(2-methylpropyl)-1H-pyrazol-3-yl]formamido}-4-phenylbutanoic acid] was tested, and the EC50 was > 10000 nM.

Same assay, conditions: in vitro apelin agonist activity, methods of Giddings et al., Apelin-13 as positive control; read-out: EC50 (nM) Ave

Compared with `CCc1ccccc1-c1cc(C(=O)N[C@@H](CCN2CCC(F)(F)CC2)CC(=O)O)nn1C1CCCC1` [compound 405, (3S)-3-{[1-cyclopentyl-5-(2-ethylphenyl)-1H-pyrazol-3-yl]formamido}-5-(4,4-difluoropiperidin-1-yl)pentanoic acid], `CCc1ccccc1-c1cc(C(=O)N[C@@H](CCN2CCCC(F)(F)C2)CC(=O)O)nn1C1CCCC1` [compound 404, (3S)-3-{[1-cyclopentyl-5-(2-ethylphenyl)-1H-pyrazol-3-yl]formamido}-5-(3,3-difluoropiperidin-1-yl)pentanoic acid] is 3.5-fold lower in EC50: 227 nM for the first, 65 nM for the second.

`O=C(O)C[C@H](CCN1CCCC(F)(F)C1)NC(=O)c1cc(-c2ccccc2C(F)(F)F)n(C2CCC2)n1` [compound 552, (3S)-3-({1-cyclobutyl-5-[2-(trifluoromethyl)phenyl]-1H-pyrazol-3-yl}formamido)-5-(3,3-difluoropiperidin-1-yl)pentanoic acid] and `O=C(O)C[C@H](CCN1CCCC(F)(F)C1)NC(=O)c1cc(-c2c(Cl)cccc2C(F)(F)F)n(C2CCCC2)n1` [compound 556, (3S)-3-({-[2-chloro-6-(trifluoromethyl)phenyl]-1-cyclopentyl-1H-pyrazol-3-yl}formamido)-5-(3,3-difluoropiperidin-1-yl)pentanoic acid] cannot be ordered by EC50: 167 nM for the first, > 10 nM for the second.

First: O=C(N[C@@H](CC1CCCC1)C(=O)O)c1cc(-c2ccccc2C(F)(F)F)n(C2CCCC2)n1 [compound 526, (2S)-3-cyclopentyl-2-({1-cyclopentyl-5-[2-(trifluoromethyl)phenyl]-1H-pyrazol-3-yl}formamido)propanoic acid]
Second: O=C(O)C[C@H](CCN1CCC[C@H](F)C1)NC(=O)c1cc(-c2ccccc2C(F)(F)F)n(C2CCCC2)n1 [compound 583, (3S)-3-({1-cyclopentyl-5-[2-(trifluoromethyl)phenyl]-1H-pyrazol-3-yl}formamido)-5-[(3S)-3-fluoropiperidin-1-yl]pentanoic acid]
The EC50 of the first is 5.7-fold higher: 1720 nM for the first, 302 nM for the second. The second is the more potent here.

Compared with `C[C@@H](c1nnn[nH]1)[C@H](CCN1CC2C(C1)C2(F)F)NC(=O)c1cc(-c2ccccc2C(F)(F)F)n(C2CCCC2)n1` (stereo partly drawn) [compound 638, 1-cyclopentyl-N-[(3S,4R)-1-{6,6-difluoro-3-azabicyclo[3.1.0]hexan-3-yl}-4-(1H-1,2,3,4-tetrazol-5-yl)pentan-3-yl]-5-[2-(trifluoromethyl)phenyl]-1H-pyrazole-3-carboxamide], `O=C(O)C[C@H](CCN1CC2C(C1)C2(F)F)NC(=O)c1cc(-c2ccccc2C(F)(F)F)n(C2CCCC2)n1` (stereo partly drawn) [compound 603, (3S)-3-({1-cyclopentyl-5-[2-(trifluoromethyl)phenyl]-1H-pyrazol-3-yl}formamido)-5-{6,6-difluoro-3-azabicyclo[3.1.0]hexan-3-yl}pentanoic acid] is 3.3-fold higher in EC50: 14 nM for the first, 46 nM for the second.

Going from `O=C(O)C[C@H](CCN1C2CCC1CC(F)(F)C2)NC(=O)c1cc(-c2ccccc2C(F)(F)F)n(C2CCCC2)n1` [compound 602, (3S)-3-({1-cyclopentyl-5-[2-(trifluoromethyl)phenyl]-1H-pyrazol-3-yl}formamido)-5-{3,3-difluoro-8-azabicyclo[3.2.1]octan-8-yl}pentanoic acid] to `O=C(O)C[C@H](CCN1C[C@@H](F)[C@H](F)C1)NC(=O)c1cc(-c2ccccc2C(F)(F)F)n(C2CCCC2)n1` [compound 631, (3S)-3-({1-cyclopentyl-5-[2-(trifluoromethyl)phenyl]-1H-pyrazol-3-yl}formamido)-5-[(3R,4R)-3,4-difluoropyrrolidin-1-yl]pentanoic acid], the EC50 falls from 346 nM to 75 nM (4.6-fold). The second is the more potent here.

First: Cc1nnc(C[C@H](CCc2ccc(F)cc2)NC(=O)c2cc(-c3ccccc3C(F)(F)F)n(C3CCCC3)n2)[nH]1 [compound 471, 1-cyclopentyl-N-[(2S)-4-(4-fluorophenyl)-1-(5-methyl-4H-1,2,4-triazol-3-yl)butan-2-yl]-5-[2-(trifluoromethyl)phenyl]-1H-pyrazole-3-carboxamide]
Second: O=C(N[C@@H](CCc1ccc(F)cc1)Cc1nnc[nH]1)c1cc(-c2ccccc2C(F)(F)F)n(C2CCCC2)n1 [compound 470, 1-cyclopentyl-N-[(2S)-4-(4-fluorophenyl)-1-(4H-1,2,4-triazol-3-yl)butan-2-yl]-5-[2-(trifluoromethyl)phenyl]-1H-pyrazole-3-carboxamide]
The EC50 of the first is 2.6-fold higher: 1140 nM for the first, 435 nM for the second.

`COc1cccc(OC)c1-c1cc(C(=O)N[C@@H](CCN2CCCCC2)CC(N)=O)nn1C1CCCC1` [compound 352, (3S)-3-{[1-cyclopentyl-5-(2,6-dimethoxyphenyl)-1H-pyrazol-3-yl]formamido}-5-(piperidin-1-yl)pentanamide] and `COc1cccc(OC)c1-c1cc(C(=O)N[C@@H](CCN2CCCC2)CC(=O)OC(C)(C)C)nn1C1CCCC1` [compound 316, tert-butyl (3S)-3-{[1-cyclopentyl-5-(2,6-dimethoxyphenyl)-1H-pyrazol-3-yl]formamido}-5-(pyrrolidin-1-yl)pentanoate] cannot be ordered by EC50: > 10000 nM for the first, > 10000 nM for the second.

Going from `O=C(O)C[C@@H](NC(=O)c1cc(-c2ccccc2C(F)(F)F)n(C2CCCC2)n1)C(=O)Nc1ccc(F)cc1` [compound 560, (3R)-3-({1-cyclopentyl-5-[2-(trifluoromethyl)phenyl]-1H-pyrazol-3-yl}formamido)-3-[(4-fluorophenyl)carbamoyl]propanoic acid] to `COCCN(C)C(=O)[C@H](CCc1ccccc1)NC(=O)c1cc(-c2ccccc2C(F)(F)F)n(C2CCCC2)n1` [compound 542, (2S)-2-({1-cyclopentyl-5-[2-(trifluoromethyl)phenyl]-1H-pyrazol-3-yl}formamido)-N-(2-methoxyethyl)-N-methyl-4-phenylbutanamide], the EC50 falls from 738 nM to 105 nM (7-fold). The second is the more potent here.

Going from `CCN(C(=O)c1cc(-c2cccs2)n(C2CCCC2)n1)[C@@H](CCN1CCCCC1)CC(=O)NC1CCC1` [compound 347] to `COc1cccc(OC)c1-c1cc(C(=O)N[C@@H](CCN2CCCCC2)CC(=O)NC2CCOCC2)nn1C1CCCC1` [compound 332, (3S)-3-{[1-cyclopentyl-5-(2,6-dimethoxyphenyl)-1H-pyrazol-3-yl]formamido}-N-(oxan-4-yl)-5-(piperidin-1-yl)pentanamide], the EC50 falls from > 10000 nM to 391 nM.

Going from `O=C(C[C@H](CCNC(=O)C1COC1)NC(=O)c1cc(-c2ccccc2C(F)(F)F)n(C2CCCC2)n1)NC1CCC1` [compound 539, (3S)-N-cyclobutyl-3-({1-cyclopentyl-5-[2-(trifluoromethyl)phenyl]-1H-pyrazol-3-yl}formamido)-5-(oxetan-3-ylformamido)pentanamide] to `CCc1ccccc1-c1cc(C(=O)N[C@@H](CCN2CCC(F)(F)CC2)CC(=O)NC2CCC2)nn1C1CCCC1` [compound 411, (3S)-N-cyclobutyl-3-{[1-cyclopentyl-5-(2-ethylphenyl)-1H-pyrazol-3-yl]formamido}-5-(4,4-difluoropiperidin-1-yl)pentanamide], the EC50 falls from 176 nM to 14.5 nM (12-fold). The second is the more potent here.

First: COc1cccc(OC)c1-c1cc(C(=O)N[C@@H](/C=C/c2cccnc2)CC(=O)NC2CCC2)nn1C1CCCC1 [compound 418, (3R,4E)-N-cyclobutyl-3-{[1-cyclopentyl-5-(2,6-dimethoxyphenyl)-1H-pyrazol-3-yl]formamido}-5-(pyridin-3-yl)pent-4-enamide]
Second: COc1cccc(OC)c1-c1cc(C(=O)N[C@@H](CCc2ccccc2)C(=O)O)nn1C1CCCC1 [compound 389, (2S)-2-{[1-cyclopentyl-5-(2,6-dimethoxyphenyl)-1H-pyrazol-3-yl]formamido}-4-phenylbutanoic acid]
The EC50 of the first is lower: 664 nM for the first, > 10000 nM for the second. The first is the more potent here.

Going from `COc1cccc(OC)c1-c1cc(C(=O)N[C@@H](CCc2ccccc2)C(=O)Nc2nccs2)nn1C1CCCC1` [compound 396, (2S)-2-{[1-cyclopentyl-5-(2,6-dimethoxyphenyl)-1H-pyrazol-3-yl]formamido}-4-phenyl-N-(1,3-thiazol-2-yl)butanamide] to `CN(C(=O)C[C@H](CCN1CCCC(F)(F)C1)NC(=O)c1cc(-c2ccccc2Cl)n(C2CCCC2)n1)c1nccs1` [compound 447, (3S)-3-{[5-(2-chlorophenyl)-1-cyclopentyl-1H-pyrazol-3-yl]formamido}-5-(3,3-difluoropiperidin-1-yl)-N-methyl-N-(1,3-thiazol-2-yl)pentanamide], the EC50 falls from > 10000 nM to 84 nM.

First: O=C(C[C@H](CCN1CCCC(F)(F)C1)NC(=O)c1cc(-c2ccccc2C(F)(F)F)n(C2CCCC2)n1)Nc1ncco1 [compound 427, (3S)-3-({1-cyclopentyl-5-[2-(trifluoromethyl)phenyl]-1H-pyrazol-3-yl}formamido)-5-(3,3-difluoropiperidin-1-yl)-N-(1,3-oxazol-2-yl)pentanamide]
Second: CC1(C)CN(CC[C@@H](CC(=O)O)NC(=O)c2cc(-c3ccccc3C(F)(F)F)n(C3CCCC3)n2)C1 [compound 588, (3S)-3-({1-cyclopentyl-5-[2-(trifluoromethyl)phenyl]-1H-pyrazol-3-yl]formamido)-5-(3,3-dimethylazetidin-1-yl)pentanoic acid]
The EC50 of the first is 59-fold lower: 8.5 nM for the first, 502 nM for the second.
